Laboratory results: ChEMBL document CHEMBL4665804, “Characterization of SPK 98, a Torin2 analog, as ATR and mTOR dual kinase inhibitor” (Bioorg Med Chem Lett, 2020)
Converted amounts (≈) assume the structure as drawn. The source made the active and inactive calls. The calls are words filed in the database; no cut-off is given here.

Experiments:
[1] = target: Serine/threonine-protein kinase mTOR (Homo sapiens) (UniProt P42345); experiment: Inhibition of mTOR in human HCT116 cells assessed as decrease in p70S6K phosphorylation at Thr389 residue at 50 nM treated for 1 hr prior to UV-irradiation exposure and measured after 1 hr by immunoblot analysis; type: cell-based; conditions: HCT-116, time 2.0 hrs
HCT-116 [2] = experiment: Growth inhibition of human HCT116 cells measured after 72 hrs by Celltiter-Glo assay; type: functional
[3] = target: Serine/threonine-protein kinase ATR (Homo sapiens) (UniProt Q13535); experiment: Inhibition of ATR in human HCT116 cells assessed as decrease in Chk1 phosphorylation at Ser317 residue at 250 nM treated for 1 hr prior to UV-irradiation exposure and measured after 1 hr by Immunoblot analysis; type: cell-based; conditions: HCT-116, time 2.0 hrs
Chain of Serine/threonine-protein kinase ATR (Homo sapiens) (Q13535 whole entry, looked up): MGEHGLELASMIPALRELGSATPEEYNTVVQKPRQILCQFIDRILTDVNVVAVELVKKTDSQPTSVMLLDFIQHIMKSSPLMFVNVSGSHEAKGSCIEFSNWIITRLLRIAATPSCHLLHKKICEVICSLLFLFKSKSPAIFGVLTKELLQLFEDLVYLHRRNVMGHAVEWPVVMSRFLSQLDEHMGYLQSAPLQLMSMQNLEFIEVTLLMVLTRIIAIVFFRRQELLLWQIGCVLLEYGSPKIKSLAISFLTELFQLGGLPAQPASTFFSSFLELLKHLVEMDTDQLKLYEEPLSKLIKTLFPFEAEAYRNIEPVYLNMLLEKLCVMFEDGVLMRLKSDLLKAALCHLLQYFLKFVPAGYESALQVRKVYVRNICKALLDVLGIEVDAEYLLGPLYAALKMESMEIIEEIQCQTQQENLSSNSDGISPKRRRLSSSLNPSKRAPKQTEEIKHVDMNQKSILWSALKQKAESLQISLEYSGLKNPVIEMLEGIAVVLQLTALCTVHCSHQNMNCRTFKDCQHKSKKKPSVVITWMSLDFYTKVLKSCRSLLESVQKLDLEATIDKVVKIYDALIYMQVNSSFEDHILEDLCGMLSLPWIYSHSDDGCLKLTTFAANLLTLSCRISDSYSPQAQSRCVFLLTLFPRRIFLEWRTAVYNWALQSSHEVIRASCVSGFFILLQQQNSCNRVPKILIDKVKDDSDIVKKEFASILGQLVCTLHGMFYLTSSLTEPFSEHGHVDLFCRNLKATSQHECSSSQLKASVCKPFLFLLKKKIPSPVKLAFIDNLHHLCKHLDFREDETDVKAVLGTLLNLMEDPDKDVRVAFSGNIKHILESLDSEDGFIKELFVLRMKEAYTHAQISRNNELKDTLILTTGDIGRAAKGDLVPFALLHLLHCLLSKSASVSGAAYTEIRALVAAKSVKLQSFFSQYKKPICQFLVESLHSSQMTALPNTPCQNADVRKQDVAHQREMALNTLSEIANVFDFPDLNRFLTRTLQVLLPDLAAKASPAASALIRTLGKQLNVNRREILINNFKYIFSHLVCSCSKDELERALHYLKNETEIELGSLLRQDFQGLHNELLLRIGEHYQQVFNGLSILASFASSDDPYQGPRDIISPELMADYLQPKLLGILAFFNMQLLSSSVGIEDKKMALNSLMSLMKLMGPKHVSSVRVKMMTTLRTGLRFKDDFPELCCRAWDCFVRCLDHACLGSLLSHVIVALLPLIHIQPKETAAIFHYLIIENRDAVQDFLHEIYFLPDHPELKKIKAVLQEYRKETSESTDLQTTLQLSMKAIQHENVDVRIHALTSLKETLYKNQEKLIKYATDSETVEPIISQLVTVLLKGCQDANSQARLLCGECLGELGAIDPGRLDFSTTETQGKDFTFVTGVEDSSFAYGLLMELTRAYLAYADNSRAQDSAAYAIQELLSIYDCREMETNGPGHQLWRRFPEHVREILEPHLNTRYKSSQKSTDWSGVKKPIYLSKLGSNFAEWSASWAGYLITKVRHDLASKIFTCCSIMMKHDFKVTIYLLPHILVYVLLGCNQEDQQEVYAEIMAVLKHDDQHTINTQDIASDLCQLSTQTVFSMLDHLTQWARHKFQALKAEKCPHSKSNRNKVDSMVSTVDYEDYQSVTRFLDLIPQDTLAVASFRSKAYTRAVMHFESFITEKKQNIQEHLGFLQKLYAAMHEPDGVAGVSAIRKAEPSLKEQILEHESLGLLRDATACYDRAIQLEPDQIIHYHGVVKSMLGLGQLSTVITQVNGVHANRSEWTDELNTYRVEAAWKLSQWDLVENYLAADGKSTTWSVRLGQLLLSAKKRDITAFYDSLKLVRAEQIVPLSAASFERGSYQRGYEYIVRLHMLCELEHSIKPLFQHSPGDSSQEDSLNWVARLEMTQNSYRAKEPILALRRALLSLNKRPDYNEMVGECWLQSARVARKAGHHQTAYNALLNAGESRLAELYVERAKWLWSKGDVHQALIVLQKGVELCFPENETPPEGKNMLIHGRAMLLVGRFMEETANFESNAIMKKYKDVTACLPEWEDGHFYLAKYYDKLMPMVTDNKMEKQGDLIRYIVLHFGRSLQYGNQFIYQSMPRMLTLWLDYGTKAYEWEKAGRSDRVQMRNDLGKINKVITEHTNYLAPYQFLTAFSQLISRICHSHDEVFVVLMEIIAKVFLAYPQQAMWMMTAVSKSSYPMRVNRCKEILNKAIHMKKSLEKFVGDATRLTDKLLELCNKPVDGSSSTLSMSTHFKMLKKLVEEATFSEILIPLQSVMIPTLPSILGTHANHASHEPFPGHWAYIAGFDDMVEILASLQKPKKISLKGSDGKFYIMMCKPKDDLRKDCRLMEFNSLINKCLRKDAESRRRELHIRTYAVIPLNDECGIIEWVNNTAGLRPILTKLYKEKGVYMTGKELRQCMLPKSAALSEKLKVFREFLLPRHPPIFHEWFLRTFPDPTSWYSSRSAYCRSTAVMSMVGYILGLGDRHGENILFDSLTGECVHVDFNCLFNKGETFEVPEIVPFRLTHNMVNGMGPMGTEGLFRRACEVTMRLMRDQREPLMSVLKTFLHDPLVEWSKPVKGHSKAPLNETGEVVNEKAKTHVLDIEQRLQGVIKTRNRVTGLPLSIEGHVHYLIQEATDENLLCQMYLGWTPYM

HCT-116 [4] = experiment: Inhibition of ATR/mTOR in human HCT116 cells harboring ATM+/-p53+/+ gene allele assessed as premature chromatin condensation at 50 nM treated for 1 hr prior to UV-irradiation exposure and measured after 1 hr by DAPI staining based confocal microscopic method; type: cell-based; conditions: time 2.0 hrs
[5] = target: Serine/threonine-protein kinase ATR (Homo sapiens) (UniProt Q13535); experiment: Inhibition of ATR in human HCT116 cells assessed as decrease in Chk1 phosphorylation at Ser317 residue by measuring decrease in foci formation at 50 nM treated for 1 hr prior to UV-irradiation exposure and measured after 1 hr by Immunofluorescence analysis; type: cell-based; conditions: HCT-116, time 2.0 hrs
HeLa = experiment: Growth inhibition of human HeLa cells measured after 72 hrs by Celltiter-Glo assay; type: functional
[6] = target: Serine/threonine-protein kinase mTOR (Homo sapiens) (UniProt P42345); experiment: Inhibition of mTOR in human HCT116 cells assessed as decrease in p70S6K phosphorylation at Thr389 residue at 250 nM treated for 1 hr prior to UV-irradiation exposure and measured after 1 hr by immunoblot analysis; type: cell-based; conditions: HCT-116, time 2.0 hrs
[7] = target: T1, Serine-protein kinase ATM (Homo sapiens, UniProt Q13315); experiment: Inhibition of ATM in human HCT116 cells assessed as decrease in gammaH2AX phosphorylation at Ser139 residue by measuring decrease in foci formation at 50 nM treated for 1 hr prior to UV-irradiation exposure and measured after 1 hr by immunofluorescence assay; type: cell-based; conditions: hct-116, 2 h, 0.05 µM
[8] = target: T1, Serine-protein kinase ATM; experiment: Inhibition of ATM in human HCT116 cells assessed as decrease in Chk2 phosphorylation at Thr68 residue by measuring decrease in foci formation at 50 nM treated for 1 hr prior to UV-irradiation exposure and measured after 1 hr by immunofluorescence assay; type: cell-based; conditions: hct-116, 2 h, 0.05 µM
[9] = Stability in human liver microsomes assessed as proportion of drug metabolized measured after 30 mins; type: ADME, Microsome; conditions: read-out: Drug metabolism
[10] = Intrinsic clearance in rat liver microsome; type: ADME; conditions: liver microsomes, read-out: CLH
[11] = Half life in human liver microsome; type: ADME; conditions: liver microsomes
[12] = Aqueous solubility of the compound relative to Torin2; type: physicochemical; conditions: buffer
[13] = Stability in mouse liver microsomes assessed as proportion of drug metabolized measured after 30 mins; type: ADME, Microsome; conditions: read-out: Drug metabolism
[14] = Intrinsic clearance in mouse liver microsome; type: ADME; conditions: liver microsomes, read-out: CLH
[15] = Aqueous solubility of the compound; type: physicochemical
[16] = Half life in mouse liver microsome; type: ADME; conditions: liver microsomes
[17] = Stability in rat liver microsomes assessed as proportion of drug metabolized measured after 30 mins; type: ADME, Microsome; conditions: read-out: Drug metabolism
[18] = Intrinsic clearance in human liver microsome; type: ADME; conditions: liver microsomes, read-out: CLH
[19] = Half life in rat liver microsome; type: ADME; conditions: liver microsomes

Row | Structure (SMILES) | inhibition [1] | GI50 (HCT-116 [2]) [nM] | inhibition [3] | inhibition [5] | GI50 (HeLa) [nM] | inhibition [6] | inhibition (INH) [7] | inhibition (INH) [8] | metabolised at 0.5 h [9] [%] | microsomal CLint [10] [µL/min/mg] | half-life [11] [min] | fold change (FC) [12] | metabolised at 0.5 h [13] [%] | microsomal CLint [14] [µL/min/mg] | solubility [15] [µM] | half-life [16] [min] | metabolised at 0.5 h [17] [%] | microsomal CLint [18] [µL/min/mg] | half-life [19] [min] | inhibition (HCT-116 [4])
1 | CS(=O)(=O)Nc1ccc(-c2ccc3ncc4ccc(=O)n(-c5cccc(C(F)(F)F)c5)c4c3c2)cn1 | Active | 1420 | Active | – | – | – | – | – | – | – | – | – | – | – | – | – | – | – | – | –
2 | O=c1ccc2cnc3ccc(-c4ccc(N5CCOCC5)nc4)cc3c2n1-c1cccc(C(F)(F)F)c1 | Active | 800 | Active | – | 330 | – | – | – | – | – | – | – | – | – | – | – | – | – | – | –
3 | O=c1ccc2cnc3ccc(-c4ccc(N5CCNCC5)nc4)cc3c2n1-c1cccc(C(F)(F)F)c1 | Active | 56 | 100% | Active | 50.4 | – | Not Active | Not Active | 55 | 33 | 31 | 10 | 11 | 9 | 22 (≈ 11 µg/mL) | 157 | 41 | 44 | 42 | Active

Now from value to compound, other results behind:

Row | inhibition [1] | GI50 (HCT-116 [2]) [nM] | inhibition [3] | inhibition [5] | GI50 (HeLa) [nM] | inhibition [6] | inhibition (INH) [7] | inhibition (INH) [8] | metabolised at 0.5 h [9] [%] | microsomal CLint [10] [µL/min/mg] | half-life [11] [min] | fold change (FC) [12] | metabolised at 0.5 h [13] [%] | microsomal CLint [14] [µL/min/mg] | solubility [15] [µM] | half-life [16] [min] | metabolised at 0.5 h [17] [%] | microsomal CLint [18] [µL/min/mg] | half-life [19] [min] | Structure (SMILES) | inhibition (HCT-116 [4])
4 | – | 32.2 | – | Active | 98 | – | – | – | – | – | – | – | – | – | – | – | – | – | – | Nc1ccc(-c2ccc3ncc4ccc(=O)n(-c5cccc(C(F)(F)F)c5)c4c3c2)cn1 | Active
5 | Active | 135 | Active | inactive | 121 | Active | Not Active | – | – | – | – | – | – | – | – | – | – | – | – | Nc1cnc(-c2ccc3ncc4ccc(=O)n(-c5cccc(C(F)(F)F)c5)c4c3c2)cn1 | –
